Experimental data published in PubChem BioAssay AID252 (DTP/NCI, 2004).
“And” between values parts separate entries of the source, which are not always exact repeats. Equal entries are not always repeated. Toxic doses and inconclusive results are not listed.

Test system: BDF1 mice, intracerebral L1210 leukemia, survival T/C
Assay: NCI In Vivo Anticancer Drug Screen. Data for tumor model L1210 Leukemia (intracerebral) in B6D2F1 (BDF1) mice
Settings: higher = longer survival
In short: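 Tumour was transplanted, animals received compound or vehicle, then survival in each group was measured and treated divided by control.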

[1] = endpoint: mean survival time, dose: 18.0 mg/kg/injection, schedule: Q01DX001 (ip), vehicle: carboxymethylcellulose (CMC)
[2] = endpoint: mean survival time, dose: 24.0 mg/kg/injection, schedule: Q01DX001 (ip), vehicle: other
[3] = endpoint: mean survival time, dose: 75.0 mg/kg/injection, schedule: Q01DX001 (ip), vehicle: carboxymethylcellulose (CMC)
[4] = endpoint: mean survival time, dose: 13.0 mg/kg/injection, schedule: Q01DX001 (ip), vehicle: carboxymethylcellulose (CMC)
[5] = endpoint: mean survival time, dose: 20.0 mg/kg/injection, schedule: Q01DX001 (ip), vehicle: carboxymethylcellulose (CMC)
[6] = endpoint: mean survival time, dose: 54.0 mg/kg/injection, schedule: Q01DX001 (ip), vehicle: other

`O=C(O)CCCc1ccc(N(CCCl)CCCl)cc1` was tested, and the T/C [1] was 105 % of control, the T/C (endpoint: mean survival time, dose: 27.0 mg/kg/injection, schedule: Q01DX001 (ip), vehicle: carboxymethylcellulose (CMC)) was 112 % of control and the T/C (endpoint: mean survival time, dose: 41.0 mg/kg/injection, schedule: Q01DX001 (ip), vehicle: carboxymethylcellulose (CMC)) was 112 % of control.

For `CN(C)C(=O)c1ccc(NC(=O)N(CCCl)N=O)cc1`, the T/C (endpoint: mean survival time, dose: 8.0 mg/kg/injection, schedule: Q01DX001 (ip), vehicle: other) was 110 % of control and the T/C [2] was 121 % of control.

With `CC1CCC(NC(=O)N(CCF)N=O)CC1` (centres undefined) the T/C (endpoint: mean survival time, dose: 20.0 mg/kg/injection, schedule: Q01DX001 (ip), vehicle: other) was 117 % of control, the T/C (endpoint: mean survival time, dose: 44.0 mg/kg/injection, schedule: Q01DX001 (ip), vehicle: other) was 212 % of control and the T/C (endpoint: mean survival time, dose: 66.0 mg/kg/injection, schedule: Q01DX001 (ip), vehicle: other) was 341 % of control.

`COc1ccc2c(Nc3ccc(NS(C)(=O)=O)cc3)c3ccccc3nc2c1` was tested, and the T/C (endpoint: mean survival time, dose: 6.25 mg/kg/injection, schedule: Q01DX009 (ip), vehicle: saline) was 106 % of control, the T/C (endpoint: mean survival time, dose: 6.25 mg/kg/injection, schedule: Q01DX009 (sc), vehicle: saline) was 104 % of control and the T/C (endpoint: mean survival time, dose: 12.5 mg/kg/injection, schedule: Q01DX009 (ip), vehicle: saline) was 102 % of control. The T/C (endpoint: mean survival time, dose: 12.5 mg/kg/injection, schedule: Q01DX009 (sc), vehicle: saline) was 100 % of control, the T/C (endpoint: mean survival time, dose: 25.0 mg/kg/injection, schedule: Q01DX009 (sc), vehicle: saline) was 106 % of control and the T/C (endpoint: mean survival time, dose: 50.0 mg/kg/injection, schedule: Q01DX009 (sc), vehicle: saline) was 88 % of control.

In the case of `O=NN(CCCl)C(=O)Nc1ccc(C(F)(F)F)cc1`, the T/C (endpoint: mean survival time, dose: 37.0 mg/kg/injection, schedule: Q01DX001 (ip), vehicle: carboxymethylcellulose (CMC)) is reported as 110 % of control, the T/C (endpoint: mean survival time, dose: 50.0 mg/kg/injection, schedule: Q01DX001 (ip), vehicle: carboxymethylcellulose (CMC)) is reported as 110 % of control and the T/C [3] is reported as 118 % of control. The T/C (endpoint: mean survival time, dose: 112.0 mg/kg/injection, schedule: Q01DX001 (ip), vehicle: carboxymethylcellulose (CMC)) was 92 % of control.

For `O=NN(CCF)C(=O)Nc1c[nH]c(=O)[nH]c1=O`, the T/C (endpoint: mean survival time, dose: 9.0 mg/kg/injection, schedule: Q01DX001 (ip), vehicle: carboxymethylcellulose (CMC)) was 103 % of control, the T/C [4] was 105 % of control and the T/C [5] was 110 % of control.

With `CS(=O)(=O)Nc1ccc(Nc2c3ccccc3nc3ccccc23)cc1` the T/C (endpoint: mean survival time, dose: 10.0 mg/kg/injection, schedule: Q01DX009 (ip), vehicle: saline) was 104 % of control, the T/C (endpoint: mean survival time, dose: 10.0 mg/kg/injection, schedule: Q01DX009 (sc), vehicle: saline) was 92 % of control and the T/C (endpoint: mean survival time, dose: 20.0 mg/kg/injection, schedule: Q01DX009 (ip), vehicle: saline) was 101 % of control. The T/C (endpoint: mean survival time, dose: 20.0 mg/kg/injection, schedule: Q01DX009 (sc), vehicle: saline) was 96 % of control, the T/C (endpoint: mean survival time, dose: 40.0 mg/kg/injection, schedule: Q01DX009 (ip), vehicle: saline) was 96 % of control and the T/C (endpoint: mean survival time, dose: 40.0 mg/kg/injection, schedule: Q01DX009 (sc), vehicle: saline) was 90 % of control. For the same compound, the T/C (endpoint: mean survival time, dose: 80.0 mg/kg/injection, schedule: Q01DX009 (sc), vehicle: saline) was 96 % of control.

With `CN(C)CC(=O)c1ccc(O)c(O)c1` the T/C (endpoint: median survival time, dose: 100.0 mg/kg/injection, schedule: Q01DX005 (ip), vehicle: saline) was 101 % of control, the T/C (endpoint: median survival time, dose: 200.0 mg/kg/injection, schedule: Q01DX005 (ip), vehicle: saline) was 101 % of control and the T/C (endpoint: median survival time, dose: 400.0 mg/kg/injection, schedule: Q01DX005 (ip), vehicle: saline) was 98 % of control. The T/C (endpoint: median survival time, dose: 800.0 mg/kg/injection, schedule: Q01DX005 (ip), vehicle: saline) was 113 % of control.

With `CN(N=O)C(=O)Nc1ccc(F)cc1` the T/C [3] was 101 % of control and the T/C (endpoint: mean survival time, dose: 150.0 mg/kg/injection, schedule: Q01DX001 (ip), vehicle: carboxymethylcellulose (CMC)) was 103 % of control.

For `CNC(=N)c1ccc(NC(=N)c2ccc(NC(=O)Nc3cccc(NC(=O)Nc4ccc(C(=N)Nc5ccc(C(=N)NC)cc5)cc4)c3)cc2)cc1`, the T/C (endpoint: mean survival time, dose: 50.0 mg/kg/injection, schedule: Q01DX001 (ip), vehicle: water) was 106 % of control and the T/C (endpoint: mean survival time, dose: 75.0 mg/kg/injection, schedule: Q01DX001 (ip), vehicle: water) was 109 % of control.

For `O=NN(CCCl)C(=O)Nc1ccc(Cn2ccc(=O)[nH]c2=O)cc1`, the T/C [1] was 109 % of control, the T/C (endpoint: mean survival time, dose: 26.0 mg/kg/injection, schedule: Q01DX001 (ip), vehicle: carboxymethylcellulose (CMC)) was 110 % of control and the T/C (endpoint: mean survival time, dose: 40.0 mg/kg/injection, schedule: Q01DX001 (ip), vehicle: carboxymethylcellulose (CMC)) was 109 % of control. For the same compound, the T/C (endpoint: mean survival time, dose: 60.0 mg/kg/injection, schedule: Q01DX001 (ip), vehicle: carboxymethylcellulose (CMC)) was 122 % of control and the T/C (endpoint: mean survival time, dose: 90.0 mg/kg/injection, schedule: Q01DX001 (ip), vehicle: carboxymethylcellulose (CMC)) was 119 % of control.

With `CCOC(=O)C(CC(C)C)NC(=O)C(Cc1ccc(N(CCCl)CCCl)cc1)NC(C)=O` (centres undefined) the T/C (endpoint: mean survival time, dose: 2.0 mg/kg/injection, schedule: Q01DX009 (ip), vehicle: DMSO) was 90 % of control and the T/C (endpoint: mean survival time, dose: 4.0 mg/kg/injection, schedule: Q01DX009 (ip), vehicle: DMSO) was 92 % of control.

`O=NN(CCF)C(=O)NC1CCCCC1` was tested, and the T/C [4] was 120 % of control, the T/C (endpoint: mean survival time, dose: 13.5 mg/kg/injection, schedule: Q01DX001 (ip), vehicle: other) was 166 % of control and 214 % of control and 233 % of control and the T/C (endpoint: mean survival time, dose: 13.5 mg/kg/injection, schedule: Q01DX001 (oral), vehicle: other) was 253 % of control and 270 % of control and 284 % of control. For the same compound, the T/C [5] was 180 % of control, the T/C (endpoint: mean survival time, dose: 27.0 mg/kg/injection, schedule: Q01DX001 (ip), vehicle: other) was 156 % of control and 373 % of control and 379 % of control and the T/C (endpoint: mean survival time, dose: 27.0 mg/kg/injection, schedule: Q01DX001 (oral), vehicle: other) was 325 % of control and 352 % of control and 462 % of control. The T/C (endpoint: mean survival time, dose: 30.0 mg/kg/injection, schedule: Q01DX001 (ip), vehicle: carboxymethylcellulose (CMC)) was 290 % of control and 322 % of control, the T/C (endpoint: mean survival time, dose: 45.0 mg/kg/injection, schedule: Q01DX001 (ip), vehicle: carboxymethylcellulose (CMC)) was 293 % of control and 337 % of control and the T/C [6] was 190 % of control and 322 % of control and 367 % of control. For the same compound, the T/C (endpoint: mean survival time, dose: 54.0 mg/kg/injection, schedule: Q01DX001 (oral), vehicle: other) was 203 % of control and 379 % of control and the T/C (endpoint: mean survival time, dose: 67.0 mg/kg/injection, schedule: Q01DX001 (ip), vehicle: carboxymethylcellulose (CMC)) was 275 % of control.

In the case of `O=NN(CCCl)C(=O)NC1CS(=O)(=O)CS(=O)(=O)C1`, the T/C (endpoint: mean survival time, dose: 11.0 mg/kg/injection, schedule: Q01DX001 (ip), vehicle: other) is reported as 118 % of control, the T/C (endpoint: mean survival time, dose: 17.0 mg/kg/injection, schedule: Q01DX001 (ip), vehicle: other) is reported as 117 % of control and the T/C (endpoint: mean survival time, dose: 56.0 mg/kg/injection, schedule: Q01DX001 (ip), vehicle: other) is reported as 119 % of control.

`O=NN(CCF)C(=O)NC1CCSCC1` was tested, and the T/C (endpoint: mean survival time, dose: 3.7 mg/kg/injection, schedule: Q01DX001 (ip), vehicle: other) was 114 % of control and 123 % of control, the T/C (endpoint: mean survival time, dose: 15.0 mg/kg/injection, schedule: Q01DX001 (ip), vehicle: other) was 211 % of control and 223 % of control and the T/C [2] was 271 % of control. For the same compound, the T/C (endpoint: mean survival time, dose: 31.0 mg/kg/injection, schedule: Q01DX001 (ip), vehicle: other) was 460 % of control and 477 % of control, the T/C (endpoint: mean survival time, dose: 36.0 mg/kg/injection, schedule: Q01DX001 (ip), vehicle: other) was 276 % of control and the T/C [6] was 303 % of control. For the same compound, the T/C (endpoint: mean survival time, dose: 62.0 mg/kg/injection, schedule: Q01DX001 (ip), vehicle: other) was 380 % of control.

`CC(=O)NC1=C(N2CC2)C(=O)C(NC(C)=O)=C(N2CC2)C1=O` was tested, and the T/C (endpoint: mean survival time, dose: 0.12 mg/kg/injection, schedule: Q01DX009 (ip), vehicle: saline with Tween-80) was 105 % of control, the T/C (endpoint: mean survival time, dose: 0.25 mg/kg/injection, schedule: Q01DX005 (ip), vehicle: saline with Tween-80) was 97 % of control and the T/C (endpoint: mean survival time, dose: 0.25 mg/kg/injection, schedule: Q01DX009 (ip), vehicle: saline with Tween-80) was 105 % of control. The T/C (endpoint: mean survival time, dose: 0.25 mg/kg/injection, schedule: Q01DX009 (ip), vehicle: saline) was 110 % of control and 117 % of control, the T/C (endpoint: mean survival time, dose: 0.5 mg/kg/injection, schedule: Q01DX005 (ip), vehicle: saline with Tween-80) was 105 % of control and the T/C (endpoint: mean survival time, dose: 0.5 mg/kg/injection, schedule: Q01DX009 (ip), vehicle: saline with Tween-80) was 108 % of control. For the same compound, the T/C (endpoint: mean survival time, dose: 0.5 mg/kg/injection, schedule: Q01DX Z (ip), vehicle: carboxymethylcellulose (CMC)) was 113 % of control, the T/C (endpoint: mean survival time, dose: 1.0 mg/kg/injection, schedule: Q01DX005 (ip), vehicle: saline with Tween-80) was 111 % of control and the T/C (endpoint: mean survival time, dose: 2.0 mg/kg/injection, schedule: Q01DX005 (ip), vehicle: saline with Tween-80) was 115 % of control. For the same compound, the T/C (endpoint: mean survival time, dose: 2.0 mg/kg/injection, schedule: Q01DX009 (ip), vehicle: saline) was 96 % of control and 98 % of control and the T/C (endpoint: mean survival time, dose: 2.0 mg/kg/injection, schedule: Q01DX Z (ip), vehicle: carboxymethylcellulose (CMC)) was 119 % of control.

For `CCCCn1cnc2c(SC3CCCC3)ncnc21`, the T/C (endpoint: mean survival time, dose: 125.0 mg/kg/injection, schedule: Q01DX001 (ip), vehicle: carboxymethylcellulose (CMC)) was 101 % of control, the T/C (endpoint: mean survival time, dose: 250.0 mg/kg/injection, schedule: Q01DX001 (ip), vehicle: carboxymethylcellulose (CMC)) was 108 % of control and the T/C (endpoint: mean survival time, dose: 500.0 mg/kg/injection, schedule: Q01DX001 (ip), vehicle: carboxymethylcellulose (CMC)) was 119 % of control.

`CC12CC3(C)CC(C)(C1)CC(NC(=O)N(CCF)N=O)(C2)C3` was tested, and the T/C (endpoint: mean survival time, dose: 82.0 mg/kg/injection, schedule: Q01DX001 (ip), vehicle: other) was 113 % of control.
